Results taken from BindingDB's records for patent US20240124450 (Pfizer, 2024).

Key:
Assay in all cases: Enzyme Assay: Pan SIK MS IC50 Assay
[1] = molecular target: Serine/threonine-protein kinase SIK3 (Homo sapiens, UniProt Q9Y2K2)
Experimental: (§1) Salt Induced Kinase (SIK) activity is determined by measuring the effect of a test agent on the activity of the appropriate SIK enzyme to phosphorylate its corresponding substrate. […] The phosphorylated substrate product resulting from the kinase reaction is detected by LCMS/MS, and the area under the peak curve correlates with kinase activity. […] The plates are spun at 1000 rpm for 30 seconds to ensure compounds are at the bottom of the well before removing foil covers. 0.15 μL HPE (assay std) and ZPE (DMSO) are added to the ARP using an HP D300 dispenser. Plates are spun again at 1000 rpm for 30 seconds. […] Plates are spun at 1000 rpm for 30 seconds. Plates are then sealed and incubated at RT for 10 minutes. Following incubation, 5 μL of 5× peptide reagent is added with a Multidrop Combi and designated small volume cassette to initiate the kinase reaction. Plates are spun at 1000 rpm for 30 seconds. Plates are then sealed and incubated at RT for 90 minutes. The assay is stopped by the addition of 5 μl of 120 mM EDTA added with a Multidrop Combi and designated small volume cassette (20 mM final concentration). Plates are spun at 1000 rpm for 30 seconds. 10 μl of the final reaction mix from each of the three individual enzyme plates are transferred by a Platemate Plus to the same corresponding 96 well deepwell plate containing 70 μl Water/Methanol (85/15%) for multiplex MS detection ([…]). Using Activity Base (ABase), an idbs data analysis software tool, the reported area ratio unit data is associated to compound, batch and dose information, the data is evaluated for quality, and the percent inhibition of each well is calculated. The data from each Max effect/HPE and Min effect/ZPE control wells are assessed, and outliers are excluded from all further calculations. The mean and standard deviation of the HPE and ZPE are then calculated for each plate, along with the Z Prime. The compound data is converted into % effect, using the average ZPE and HPE controls as 0% and 100% activity, respectively.

[2] = molecular target: Serine/threonine-protein kinase SIK1 (Homo sapiens, UniProt P57059)
Experimental: as §1

[3] = molecular target: Serine/threonine-protein kinase SIK2 (Homo sapiens, UniProt Q9H0K1)
Experimental: as §1

Sequence of Serine/threonine-protein kinase SIK3 (Q9Y2K2 whole entry): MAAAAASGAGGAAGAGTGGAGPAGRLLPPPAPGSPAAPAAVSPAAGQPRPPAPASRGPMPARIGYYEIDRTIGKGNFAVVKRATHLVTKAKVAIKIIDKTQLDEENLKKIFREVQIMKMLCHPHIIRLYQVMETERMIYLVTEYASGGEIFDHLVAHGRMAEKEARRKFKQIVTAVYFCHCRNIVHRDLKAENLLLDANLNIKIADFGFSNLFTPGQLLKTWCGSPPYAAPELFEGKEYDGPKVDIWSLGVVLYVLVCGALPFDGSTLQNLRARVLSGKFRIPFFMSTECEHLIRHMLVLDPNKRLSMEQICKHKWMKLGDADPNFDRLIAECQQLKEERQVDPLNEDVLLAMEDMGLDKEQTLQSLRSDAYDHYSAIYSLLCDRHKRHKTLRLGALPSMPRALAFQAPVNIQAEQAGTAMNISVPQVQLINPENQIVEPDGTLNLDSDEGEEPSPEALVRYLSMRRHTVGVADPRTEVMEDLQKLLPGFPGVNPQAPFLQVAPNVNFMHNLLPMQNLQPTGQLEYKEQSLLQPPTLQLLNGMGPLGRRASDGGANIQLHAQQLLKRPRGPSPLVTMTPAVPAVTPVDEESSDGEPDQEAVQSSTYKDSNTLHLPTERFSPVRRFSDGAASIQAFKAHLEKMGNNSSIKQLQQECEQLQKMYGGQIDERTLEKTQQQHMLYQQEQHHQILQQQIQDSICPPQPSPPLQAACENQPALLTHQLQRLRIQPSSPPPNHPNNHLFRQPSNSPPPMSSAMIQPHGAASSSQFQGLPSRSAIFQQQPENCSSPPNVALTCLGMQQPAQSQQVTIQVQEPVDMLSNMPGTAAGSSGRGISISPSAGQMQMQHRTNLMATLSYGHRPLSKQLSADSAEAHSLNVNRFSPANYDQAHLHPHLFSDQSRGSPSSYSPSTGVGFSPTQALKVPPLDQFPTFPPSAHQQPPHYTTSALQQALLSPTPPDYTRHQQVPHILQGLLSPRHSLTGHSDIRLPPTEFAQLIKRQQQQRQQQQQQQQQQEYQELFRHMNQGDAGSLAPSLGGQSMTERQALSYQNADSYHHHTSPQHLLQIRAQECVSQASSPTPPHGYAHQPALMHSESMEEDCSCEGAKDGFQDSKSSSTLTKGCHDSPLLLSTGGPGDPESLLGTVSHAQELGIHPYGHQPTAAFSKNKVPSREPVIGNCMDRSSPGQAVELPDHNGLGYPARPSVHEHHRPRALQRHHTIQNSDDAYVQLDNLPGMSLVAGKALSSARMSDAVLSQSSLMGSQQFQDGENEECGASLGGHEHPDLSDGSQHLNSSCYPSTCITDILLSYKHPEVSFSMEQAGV
Sequence of Serine/threonine-protein kinase SIK1 (P57059 whole entry): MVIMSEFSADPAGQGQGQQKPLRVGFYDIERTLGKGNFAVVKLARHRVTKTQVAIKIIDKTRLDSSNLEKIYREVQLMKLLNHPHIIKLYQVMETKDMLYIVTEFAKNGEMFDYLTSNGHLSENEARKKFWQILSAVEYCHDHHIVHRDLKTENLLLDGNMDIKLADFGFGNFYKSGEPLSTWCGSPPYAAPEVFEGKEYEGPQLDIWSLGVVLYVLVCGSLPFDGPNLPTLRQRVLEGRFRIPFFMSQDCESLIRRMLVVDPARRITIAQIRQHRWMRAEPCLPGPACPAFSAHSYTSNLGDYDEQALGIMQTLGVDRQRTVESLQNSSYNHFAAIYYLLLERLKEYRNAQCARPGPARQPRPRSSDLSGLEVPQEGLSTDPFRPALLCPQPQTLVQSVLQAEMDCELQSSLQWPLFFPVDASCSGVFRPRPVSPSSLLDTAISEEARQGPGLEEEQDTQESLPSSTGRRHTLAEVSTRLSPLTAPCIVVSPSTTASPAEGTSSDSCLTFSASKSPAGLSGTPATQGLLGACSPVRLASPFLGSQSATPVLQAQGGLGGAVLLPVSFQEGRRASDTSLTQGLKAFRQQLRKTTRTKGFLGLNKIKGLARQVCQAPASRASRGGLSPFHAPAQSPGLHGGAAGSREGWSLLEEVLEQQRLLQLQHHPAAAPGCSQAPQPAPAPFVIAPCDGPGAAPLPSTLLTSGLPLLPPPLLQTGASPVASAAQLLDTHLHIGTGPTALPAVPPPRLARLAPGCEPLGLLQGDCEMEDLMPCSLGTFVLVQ
Sequence of Serine/threonine-protein kinase SIK2 (Q9H0K1 whole entry): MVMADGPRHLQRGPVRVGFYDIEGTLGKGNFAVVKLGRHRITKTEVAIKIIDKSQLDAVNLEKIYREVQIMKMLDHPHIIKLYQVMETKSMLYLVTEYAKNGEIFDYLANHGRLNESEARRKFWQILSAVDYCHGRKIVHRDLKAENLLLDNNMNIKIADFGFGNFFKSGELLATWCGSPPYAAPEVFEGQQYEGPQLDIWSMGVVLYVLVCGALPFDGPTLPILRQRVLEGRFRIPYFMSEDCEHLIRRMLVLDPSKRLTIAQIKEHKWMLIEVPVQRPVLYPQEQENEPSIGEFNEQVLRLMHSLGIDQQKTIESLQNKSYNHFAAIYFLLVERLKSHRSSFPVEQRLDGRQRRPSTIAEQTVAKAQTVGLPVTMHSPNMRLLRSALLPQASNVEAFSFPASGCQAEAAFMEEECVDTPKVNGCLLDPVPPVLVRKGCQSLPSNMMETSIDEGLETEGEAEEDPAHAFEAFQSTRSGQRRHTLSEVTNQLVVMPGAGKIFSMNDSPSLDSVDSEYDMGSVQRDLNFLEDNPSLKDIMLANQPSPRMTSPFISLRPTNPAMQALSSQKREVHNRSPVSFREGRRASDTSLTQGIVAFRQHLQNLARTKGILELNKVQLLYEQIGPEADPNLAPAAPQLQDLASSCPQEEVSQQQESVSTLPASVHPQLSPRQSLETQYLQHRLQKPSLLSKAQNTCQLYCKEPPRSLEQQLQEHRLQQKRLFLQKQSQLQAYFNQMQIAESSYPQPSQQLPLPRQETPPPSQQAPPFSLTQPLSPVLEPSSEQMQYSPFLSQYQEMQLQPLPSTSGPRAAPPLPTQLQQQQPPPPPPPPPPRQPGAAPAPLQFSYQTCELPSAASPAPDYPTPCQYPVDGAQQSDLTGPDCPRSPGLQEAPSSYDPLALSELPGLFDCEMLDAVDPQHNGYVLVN

| IC50 [1] [nM] | IC50 [2] [nM] | IC50 [3] [nM] | SMILES |
| --- | --- | --- | --- |
| 2 | 0.9 |  | CC[C@@H]1CCC[C@@]1(N)COc1cc(-c2cnc3cccc(OC)n23)cc(SC)c1C#N (mixture of isomers) [US20240124450, Example 9] |
| 4.8 | 2.4 | 1.8 | CSc1cc(-c2cnc3cccc(C#N)n23)cc(OC[C@@]2(N)CCC(F)(F)C2)c1C#N (mixture of isomers) [US20240124450, Example 12] |
| 1.7 | 0.8 |  | CC[C@@H]1CCC[C@](N)(COc2cc(-c3cnc4cccc(OC)n34)cc(OC)c2C#N)C1 [US20240124450, Example 16] |
